Measurements published in patent US8628752B2, “Methods of identifying HSP90 inhibitors with less ocular toxicity” (Synta Pharmaceuticals Corp., priority 2011, dated 2014).
Entries after “also recorded” stand apart in the source; their conditions may differ.

Experiments:
retina [1] = assay: Ganetespib 3-month toxicology study, ocular histopathology; assay type: in vivo, cynomolgus monkeys; conditions: Monkeys (M + F), max. dose 7 mg/kg, 1 hour i.v. infusion, Days 1 & 15 of four 21-day cycles
HER2 in BT-474 cells = assay: HER2 degradation assay (anti-HER2 FITC flow cytometry); assay type: cell-based; conditions: Homo sapiens, BT-474, 24 h, 24 h treatment
Experimental: HER2 positive cells were determined using anti-HER2 conjugated FITC (BD, 540553) according to manufacturer's instruction (BD Biosciences). 0.2×10^6 BT-474 cells were plated in 12-well culture plates in Dulbecco's Modified Eagle's Medium containing 10% fetal bovine serum and 1.5 g/L sodium bicarbonate. Cells were treated with the indicated compounds over a 10-1000 nM concentration range for 24 h. Cells were collected and stained with a FITC-conjugated anti-HER2 antibody for 30 min at room temperature. HER2-positive cells (fluorescence intensity) were determined by flow cytometry (excitation at 495 nm and emission at 529 nm) using a Becton Dickinson LSRII equipped with CellQuest Pro software. […]

photoreceptors = assay: Photoreceptor degeneration/apoptosis in rat eyes (H&E, TUNEL) after i.v. dosing
[2] = Ocular adverse events in clinical studies with ganetespib; assay type: in vivo, humans
retina [3] = assay: Ganetespib 3-month toxicology study, ocular histopathology; assay type: in vivo; conditions: SD rats (M + F), max. dose 100 mg/kg, 1 hour i.v. infusion, Days 1 & 15 of four 21-day cycles

In the case of `CC(C)c1cc(-c2n[nH]c(=O)n2-c2ccc3c(ccn3C)c2)c(O)cc1O` [Ganetespib, 3-(2,4-dihydroxy-5-isopropyl-phenyl)-4-(1-methyl-indol-5-yl)-5-hydroxy-[1,2,4]triazole], the Ocular histopathology evaluation (retina [1]) is reported as “No changes”, the IC50 (HER2 in BT-474 cells) is reported as 30 nM and the “Toxicity: exposure compared with human dose” value (SD rats, 20 mg/kg i.v., Cmax & AUCt > human dose) is reported as “Cmax & AUCt >”. For the same compound, the “Elimination from the retina (in words)” value (rats) was “more rapidly eliminated from the retina”, the “Retina/plasma (R/P) ratio (in words)” value (rats, 6 h post-dose) was “lower R/P ratios” and the Photoreceptor degeneration/apoptosis (photoreceptors; SD rats, 20 mg/kg i.v.) was “(−) ((−) ≦20 cells/section)”. The “Ocular toxicity / photoreceptor injury in rats (in words)” value (photoreceptors; rats, i.v., short-term studies) was “absence of ocular effects; also recorded: did not induce ocular toxicity”, the “Severity of ocular toxicities in clinical studies (in words)” value ([2]; clinical studies with ganetespib) was “absence of severe common ocular toxicities” and the “Chromatopsia, all adverse events, Grade 1” value ([2]; n = 390, number (%)) was 1 (<1%). For the same compound, the “Chromatopsia, related adverse events, Grade 1” value ([2]; n = 390, number (%)) was 1 (<1%), the “Difficulty with night vision, all adverse events, Grade 1” value ([2]; n = 390, number (%)) was 1 (<1%) and the “Vision blurred, all adverse events, Grade 1” value ([2]; n = 390, number (%)) was 11 (3%). The “Vision blurred, all adverse events, Grade 2” value ([2]; n = 390, number (%)) was 2 (<1%), the “Vision blurred, related adverse events, Grade 1” value ([2]; n = 390, number (%)) was 4 (1%) and the “Visual acuity reduced, all adverse events, Grade 1” value ([2]; n = 390, number (%)) was 2 (<1%). The “Visual acuity reduced, related adverse events, Grade 1” value ([2]; n = 390, number (%)) was 1 (<1%), the “Visual impairment, all adverse events, Grade 1” value ([2]; n = 390, number (%)) was 5 (1%) and the “Visual impairment, related adverse events, Grade 1” value ([2]; n = 390, number (%)) was 2 (<1%). The Ocular histopathology evaluation (retina [3]) was “No changes”.
